SMILES strings stand for the structures.

From US20090170867A1, “TRPV1 ANTAGONISTS INCLUDING SULFONAMIDE SUBSTITUENT AND USES THEREOF” (Shionogi & Co., Ltd., priority 2007, published 2009) come the findings set out here.

For this experiment, the target named is T1, human TRPV1 (Homo sapiens, UniProt Q8NER1).
T1 construct: using primers designed surrounding the complete hTRPV1 open reading frame; expressed in transfected cells; host or cells: CHO-K1 cells stably transfected with pcDNA3.1(-)-hVR1 plasmid
T1 sequence (Q8NER1 whole entry): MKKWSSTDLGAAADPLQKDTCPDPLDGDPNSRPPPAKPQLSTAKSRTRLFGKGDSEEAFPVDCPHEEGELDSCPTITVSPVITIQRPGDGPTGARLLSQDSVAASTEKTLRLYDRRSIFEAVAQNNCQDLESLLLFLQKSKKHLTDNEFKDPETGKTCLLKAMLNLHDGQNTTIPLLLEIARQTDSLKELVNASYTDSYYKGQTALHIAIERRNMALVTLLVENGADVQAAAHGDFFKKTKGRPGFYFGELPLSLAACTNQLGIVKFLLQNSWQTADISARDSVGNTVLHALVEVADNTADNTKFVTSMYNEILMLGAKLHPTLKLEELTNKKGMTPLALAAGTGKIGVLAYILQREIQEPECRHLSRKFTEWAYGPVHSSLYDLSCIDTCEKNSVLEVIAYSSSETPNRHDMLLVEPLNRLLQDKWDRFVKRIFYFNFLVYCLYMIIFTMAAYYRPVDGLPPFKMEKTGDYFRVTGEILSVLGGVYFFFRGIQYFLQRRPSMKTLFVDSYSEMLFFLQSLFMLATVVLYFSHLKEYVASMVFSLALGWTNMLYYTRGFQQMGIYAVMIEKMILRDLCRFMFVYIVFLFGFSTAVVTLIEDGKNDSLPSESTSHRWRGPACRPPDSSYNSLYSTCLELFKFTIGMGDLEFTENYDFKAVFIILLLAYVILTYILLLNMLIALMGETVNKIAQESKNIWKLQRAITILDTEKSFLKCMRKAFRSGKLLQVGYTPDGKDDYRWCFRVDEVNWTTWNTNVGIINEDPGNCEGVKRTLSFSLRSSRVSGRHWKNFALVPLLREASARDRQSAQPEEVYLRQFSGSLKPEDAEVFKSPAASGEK
Put plainly: Capsaicin-based assay, Protocol 2 (TRPV1/CHO cells, Fluo-4, FLIPR). In kind it is cell-based. To be noted: capsaicin 100 nM final, mean ± SEM, number of trials in parentheses, read-out: TRPV1 IC50 Potency, Human Capsaicin CHO (hCAP-CHO). The source says:
The TRPV1/CHO cell line was generated as described below. […] The resulting PCR products were purified from agarose gels using Gel Band Purification Kit (GE Healthcare Bioscience) and were subcloned into pCR-Blunt vector (Invitrogen). The cloned cDNA was fully sequenced using a fluorescent dye-terminator reagent (BigDye Terminator ver3.1 Cycle Sequencing Kit, Applied Biosystems) and ABI Prism 3100 genetic analyzer (Applied Biosystems). The pCR-Blunt vector containing the hTRPV1 cDNA was subjected to restriction digestion with EcoRI. The restriction fragment was subcloned into expression vector pcDNA3.1 (-) (Invitrogen) and named pcDNA3.1 (-)-hVR1 plasmid. The sequence of the cDNA encoding TRPV1 is available at GenBank accession number AJ277028. […] The cells were transfected with the pcDNA3.1 (-)-hVR1 plasmid using FuGENE6 (Roche) according to the manufacturer's protocol. 24 hr after transfection, neomycin-resistant cells were selected using 1 mg/mL G418 (Nacalai Tesque). […] The cells expressing hTRPV1 were cultured in the growth medium supplemented with 1 mg/mL G418. […] Subsequently, the cells were loaded by incubation in 0.1 mL of wash buffer containing Fluo-4 at 3 μM final concentration. After 1 hour, the cells were washed twice with 0.2 mL wash buffer and resuspended in 0.1 mL wash buffer. The plates were then transferred to a Fluorescence Imaging Plate Reader (Molecular Devices). Fluorescence intensity was monitored for 15 seconds to establish a baseline. […] The final concentration of the compound was adjusted to range from 100 μM to 1.5625 μM. […] Data were collected over the entire time course and analyzed using Excel and the curve-fitting formula GraphPad Prism.
Take `O=C(Nc1ccc(C(F)(F)F)c(F)c1)N1CCC(F)(c2ncc([C@@H](O)CO)cc2Cl)CC1` [Compound U5]: the IC50 was 19.9 ± 6.9 nM. As for `CC1(c2ncc([C@@H](O)CO)cc2F)CCN(C(=O)Nc2ccc(C(F)(F)F)c(Cl)c2)CC1` [Compound P5], the figure is 49.5 nM; as for `O=C(Nc1nc2ccc(F)cc2s1)N1CCC(F)(c2ncc([C@@H](O)CO)cc2F)CC1` [Compound N5], 140 nM. As for `COc1cc(NC(=O)N2CCC(F)(c3ncc([C@@H](O)CO)cc3F)CC2)ccc1C(F)(F)F` [Compound D5], the figure is 133 ± 29.1 nM; as for `O=C(Nc1ccc(C(F)(F)F)cc1)N1CCC(F)(c2ncc([C@@H](O)CO)cc2F)CC1` [Compound X4], 38.4 ± 8 nM. Under `CC1(C)CCOc2cc(NC(=O)N3CC=C(c4ncc([C@H](O)CO)cc4F)CC3)ccc21` [Compound A4] stands 55.1 ± 8.6 nM; under `COc1cc(NC(=O)N2CC=C(c3ncc([C@H](O)CO)cc3Cl)CC2)ccc1C(F)(F)F` [Compound A2], 84.1 ± 11.2 nM; under `O=C(Nc1nc2ccc(Cl)cc2[nH]1)N1CCC(F)(c2ncc([C@H](O)CO)cc2F)CC1` [Compound R4], 3280 ± 761 nM. Consider `O=C(Nc1ccc(C(F)(F)F)cn1)N1CC=C(c2ncc(CCO)cc2Cl)CC1` [Compound D6], for which the IC50 is 621 ± 117 nM. Under `COc1cc(NC(=O)N2CC=C(c3ncc([C@@H](O)CO)cc3Cl)CC2)ccc1C(F)(F)F` [Compound X5] stands 230 ± 65.5 nM.

In the case of `Cc1cc(NC(=O)N2CC=C(c3ncc([C@@H](O)CO)cc3Cl)CC2)ccc1OC(F)(F)F` [Compound R5], the IC50 was determined as 346 nM. As for `COc1cc(C(F)(F)F)ccc1NC(=O)N1CC=C(c2ncc(CO)cc2Cl)CC1` [Compound J3], the figure is 2940 ± 319 nM; as for `CN1CCCc2ccc(NC(=O)N3CC=C(c4ncccc4F)CC3)cc21` [Compound K5], 2750 ± 542 nM; as for `O=C(Nc1nc2ccc(F)cc2s1)N1CC=C(c2ncc([C@H](O)CO)cc2Cl)CC1` [Compound R1], 51 ± 18.8 nM.

`O=C(Nc1ccc(OC(F)(F)F)c(Cl)c1)N1CC=C(c2ncc([C@H](O)CO)cc2Cl)CC1` [Compound H2]: the IC50 stood at 118 ± 22.1 nM.

Consider `O=C(Nc1nc2ccc(Cl)cc2[nH]1)N1CC=C(c2ncc([C@H](O)CO)cc2Cl)CC1` [Compound P4], for which the IC50 came out at 1810 ± 302 nM.

In the case of `CC(C)c1cc(NC(=O)N2CC=C(c3ncccc3Cl)CC2)ccc1OC(F)(F)F` [Compound 205], the concentration for half-maximal inhibition (IC50) is over 25000 nM. Under `O=C(Nc1nc2ccc(Cl)cc2[nH]1)N1CC=C(c2ncc([C@@H](O)CO)cc2Cl)CC1` [Compound Q4] stands 2900 ± 302 nM; under `O=C(Nc1nc2ccc(F)cc2s1)N1CC=C(c2ncc([C@H](O)CO)cc2F)CC1` [Compound L4], 439 ± 140 nM; under `COc1cc(NC(=O)N2CCC(F)(c3ncc([C@@H](O)CO)cc3Cl)CC2)ccc1C(F)(F)F` [Compound E4], 75.7 ± 12.8 nM.

Regarding `CN(C)CC(O)c1cnc(C2=CCN(C(=O)Nc3ccc(C(F)(F)F)cc3)CC2)c(Cl)c1` (single isomer, unassigned) [Compound L5], the IC50 is over 10000 nM. As for `CS(=O)(=O)NCc1cnc(C2=CCN(C(=O)Nc3ccc(C(F)(F)F)cc3)CC2)c(Cl)c1` [Compound M4], the figure is 471 ± 127 nM; as for `O=C(Nc1ccc(S(=O)(=O)C(F)(F)F)cc1)N1CC=C(c2ncc([C@@H](O)CO)cc2Cl)CC1` [Compound O3], 46 ± 11.3 nM; as for `O=C(Nc1ccc(C(F)(F)F)cc1)N1CCC(F)(c2ncc(C(O)(CO)CO)cc2Cl)CC1` [Compound T5], 451 ± 92.4 nM. As for `O=C(Nc1ccc(C(F)(F)F)cn1)N1CC=C(c2ncc([C@H](O)CO)cc2F)CC1` [Compound K4], the IC50 came out at 210 ± 19.5 nM. As to `CCCOc1cc(NC(=O)N2CC=C(c3ncc([C@H](O)CO)cc3Cl)CC2)ccc1C(F)(F)F` [Compound O1], the IC50 came out at 41.1 ± 17.8 nM. As for `COc1cc(NC(=O)N2CCC(F)(c3ncc([C@H](O)CO)cc3Cl)CC2)ccc1C(F)(F)F` [Compound V3], the figure is 34 ± 9.2 nM; as for `O=C(Nc1ccc(S(=O)(=O)C(F)(F)F)cc1)N1CC=C(c2ncc([C@H](O)CO)cc2F)CC1` [Compound P1], 50.5 ± 9.5 nM. Under `CC1(c2ncc([C@H](O)CO)cc2F)CCN(C(=O)Nc2ccc(C(F)(F)F)c(Cl)c2)CC1` [Compound Q3] stands 14.3 ± 1.3 nM; under `Cc1cc2nc(NC(=O)N3CC=C(c4ncc([C@H](O)CO)cc4Cl)CC3)sc2cc1C` [Compound O5], 244 nM; under `O=C(Nc1ccc(C(F)(F)F)c(-c2ccccc2)c1)N1CC=C(c2ncc(CO)cc2Cl)CC1` [Compound D3], 565 ± 58.6 nM.

With `O=C(Nc1ccc(C(F)(F)F)cc1)N1CC=C(c2ncc(C(CO)CO)cc2Cl)CC1` [Compound O4, 4-(3-chloro-5-(1,3-dihydroxypropan-2-yl)pyridin-2-yl)-N-(4-(trifluoromethyl)phenyl)-5,6-dihydropyridine-1(2H)-carboxamide], the IC50 came out at 1520 ± 339 nM.

For the compound `O=C(Nc1ccc(C(F)(F)F)cc1)N1CCC(F)(c2ncc(C(O)CO)cc2Cl)CC1` (stereo not shown) [Compound A1], the IC50 is 7 ± 1.8 nM. Under `O=C(Nc1nc2ccc(Cl)cc2[nH]1)N1CCC(F)(c2ncc([C@H](O)CO)cc2Cl)CC1` [Compound N4] stands 1310 ± 220 nM; under `O=C(Nc1ccc(S(=O)(=O)N2CCCC2)c(C(F)(F)F)c1)N1CC=C(c2ncc([C@@H](O)CO)cc2Cl)CC1` [Compound C3], 541 ± 216 nM. As for `O=C(Nc1ccc(Cl)c(C(F)(F)F)c1)N1CC=C(c2ncc([C@H](O)CO)cc2Cl)CC1` [Compound T2], the figure is 226 ± 69.3 nM. Under `CC(C)S(=O)(=O)c1ccc(NC(=O)N2CC=C(c3ncc(CO)cc3Cl)CC2)cc1C(F)(F)F` [Compound I3] stands 1360 ± 337 nM; under `Cc1cc(NC(=O)N2CCC(F)(c3ncc([C@H](O)CO)cc3F)CC2)ccc1OC(F)(F)F` [Compound R3], 15.5 ± 3.5 nM. Take `O=C(Nc1nc2ccc(Cl)cc2[nH]1)N1CCC(F)(c2ncc([C@@H](O)CO)cc2F)CC1` [Compound J5]: the concentration for half-maximal inhibition (IC50) came to 1880 ± 634 nM. Under `O=C(Nc1nc2ccc(F)cc2s1)N1CCC(F)(c2ncc([C@H](O)CO)cc2F)CC1` [Compound F5] stands 166 ± 24.7 nM. Regarding `COCc1cnc(C2=CCN(C(=O)Nc3ccc(C(F)(F)F)cn3)CC2)c(Cl)c1` [Compound H3], the IC50 was determined as 1110 ± 134 nM. As for `CC(C)(C)c1ccc(NC(=O)N2CC=C(c3ncc([C@@H](O)CO)cc3F)CC2)cc1` [Compound E1], the figure is 18.5 ± 4.9 nM; as for `CN(C(=O)N1CC=C(c2ncc([C@H](O)CO)cc2Cl)CC1)c1ccc(C(F)(F)F)cc1` [Compound S4], 7030 ± 2060 nM.

One may read the IC50 as the concentration needed to halve the response being measured.
